ChEMBL document CHEMBL1201862, “PubChem BioAssay data set” (2004)
Active and inactive are the calls of the source.

Legend:
[1] = HEp-2 cell cytotoxicity, dose response, cytotoxicity control for RSV inhibitor project, HTS (AID 2410); assay type: functional; conditions: human respiratory syncytial virus
Vero = test: cells; assay type: functional, cell-based; conditions: Chlorocebus sabaeus
cells [2] = test: cells
Leucine aminopeptidase = molecular target: T1, Leucine aminopeptidase (Plasmodium falciparum 3D7, UniProt Q8IL11); test: P. falciparum M17LAP inhibitors, primary screen, biochemical, fluorogenic H-Leu-NHMec substrate, 1536-well (AID 1619); assay type: functional
T1 sequence (Q8IL11 whole entry): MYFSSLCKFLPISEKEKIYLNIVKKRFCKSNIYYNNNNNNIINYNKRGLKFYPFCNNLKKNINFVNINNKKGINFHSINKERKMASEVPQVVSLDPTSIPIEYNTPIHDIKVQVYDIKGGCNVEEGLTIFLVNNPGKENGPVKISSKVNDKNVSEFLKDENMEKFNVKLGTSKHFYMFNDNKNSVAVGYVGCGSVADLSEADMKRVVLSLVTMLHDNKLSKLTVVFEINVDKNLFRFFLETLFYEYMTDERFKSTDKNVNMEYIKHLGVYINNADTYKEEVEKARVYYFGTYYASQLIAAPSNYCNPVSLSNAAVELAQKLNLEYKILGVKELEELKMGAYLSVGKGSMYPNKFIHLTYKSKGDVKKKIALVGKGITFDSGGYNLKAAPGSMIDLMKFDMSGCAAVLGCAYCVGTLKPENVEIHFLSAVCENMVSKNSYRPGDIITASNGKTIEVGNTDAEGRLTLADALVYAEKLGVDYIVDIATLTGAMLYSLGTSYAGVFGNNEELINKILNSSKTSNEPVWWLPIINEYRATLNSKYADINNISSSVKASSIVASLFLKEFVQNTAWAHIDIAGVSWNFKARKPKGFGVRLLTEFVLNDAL

[3] = THP-1 cell cytotoxicity, dose response, cytotoxicity control for non-replicating M. tuberculosis project (AID 489025); assay type: functional
cells [4] = assay type: functional
Large T antigen = Large T antigen (Simian virus 40, UniProt P03070); assay type: functional, Betapolyomavirus macacae;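 further: Confirmatory-stage PubChem screen for compounds that inhibit SV40 T antigen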
[5] = inhibitors of intracellular T. cruzi replication, confirmation, NIH3T3 host cells, beta-gal luminescence (AID 2044); assay type: functional, cell-based;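 further: intracellular parasites grown in NIH/3T3 mouse fibroblasts as host cells; luminescent beta-galactosidase reporter signal from transgenic T. cruzi replicating inside host cells; inhibitors lower the luminescence signal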
[6] = cytotoxicity toward NIH3T3 fibroblasts, dose response, counter-screen, cell-based, ATP luminescence, mouse fibroblasts (AID 2010); assay type: functional;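 further: cells exposed to compound for about 90 hours before reading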
cells [7] = test: cells; remark: listed apart in the source
[8] = NIH-3T3 fibroblast cytotoxicity, dose response, cytotoxicity control, cell-based, fluorescence, Alamar Blue, secondary assay (AID 2327); assay type: functional;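 further: NIH-3T3 mouse fibroblasts cultured with fluconazole at 8 µg/mL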
[9] = Luminescence Cell-Based Dose Confirmation HTS to Identify Activators of 5'UTR Stem-Loop Driven Alpha-Synuclein mRNA Translation in H4 Neuroglioblastoma Cells. [Related pubchem assays: 1829 (Project Summary), 1814 (Primary HTS)]; assay type: functional
[10] = Luminescence Cell-Based Dose Response HTS to Identify Activators of Luciferase Translation or Activity in H4 […] Cells. [Related pubchem assays: 1829 (Project Summary), 1814 (Primary HTS)]; assay type: functional
H4 = test: Luminescence Cell-Based Dose Response HTS to Identify Activators of 5'UTR Stem-Loop Driven Prion Protein mRNA Translation in H4 Neuroglioblastoma Cells. [Related pubchem assays: 1829 (Project Summary), 1814 (Primary HTS)]; assay type: functional; conditions: Homo sapiens
[11] = C. albicans growth with fluconazole, confirmation, fluorescence, retest (AID 2467); assay type: functional, cell-based
[12] = cytotoxicity in HEK-293T cells, dose response, cytotoxicity control for BCR NF-kB inhibitor project, luminescence, B-cell screen hits (AID 489021); assay type: functional, cell-based;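 further: HEK-293T cells carrying an NF-kB luciferase reporter; cells exposed to compound for about 14 hours before viability readout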
INS1 = test: beta cell apoptosis inhibitors, cytokine rescue, dose response, luminescence, retest (AID 449756); assay type: functional, cell-based; conditions: Rattus norvegicus;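 further: cell death triggered by IL-1 beta plus TNF-alpha plus IFN-gamma mixture; protective hits raise ATP signal compared with cytokine alone wells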
HEK293 = test: inhibitors of LMP1-driven NF-kB reporter, dose response, cell-based, HEK293, luciferase, cherry-pick (AID 588343); assay type: functional; conditions: Homo sapiens
[13] = molecular target: T2, Latent membrane protein 1 (Human herpesvirus 4 (strain B95-8), UniProt P03230); test: TES1-eGFP NF-kB reporter inhibition versus Tet-On dsRED, dose response, selectivity assay for LMP1 NF-kB inhibitor project, imaging, HEK293T, dual-color eGFP/dsRED, cherry-picks (AID 588398); assay type: functional, cell-based
T2 sequence (P03230 whole entry): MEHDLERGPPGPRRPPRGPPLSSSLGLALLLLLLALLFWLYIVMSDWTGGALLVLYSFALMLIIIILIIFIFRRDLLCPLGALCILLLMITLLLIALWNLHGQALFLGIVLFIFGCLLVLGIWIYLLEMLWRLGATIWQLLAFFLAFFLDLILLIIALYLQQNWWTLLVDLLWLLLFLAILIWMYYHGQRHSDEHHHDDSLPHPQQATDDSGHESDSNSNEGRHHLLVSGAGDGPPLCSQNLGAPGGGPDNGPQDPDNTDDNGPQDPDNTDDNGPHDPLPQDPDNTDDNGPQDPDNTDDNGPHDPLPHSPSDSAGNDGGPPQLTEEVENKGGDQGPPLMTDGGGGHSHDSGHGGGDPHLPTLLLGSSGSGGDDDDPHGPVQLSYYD

[14] = inhibitors of HIV Env-driven cell fusion, dose response, cherry-pick (AID 652057); assay type: functional, cell-based
[15] = CEM21 lymphoblast cell cytotoxicity, dose response, cytotoxicity control for viral fusion inhibitor project, CellTiter-Glo luminescence, cherry-picked (AID 652042); assay type: functional, cell-based;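 further: potency for signal decrease meaning cytotoxicity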
[16] = ZM109 Env clade C HIV-1 fusion inhibitors, dose response, HeLa effector, CEM target cells, luciferase, cherry-pick (AID 652058); assay type: functional, cell-based
[17] = off-target signal loss in HeLa-CEM21 co-culture – HeLa F-luc CTL cells, cherry-picked, counter-screen for HIV-1 Env fusion inhibitor project, dose response (AID 652040); assay type: functional, cell-based;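 further: potency for signal decrease marking cytotoxic or nonspecific inhibition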
[18] = inhibitors of clade B AD8 Env fusion, dose response, cell-based, cherry-pick (AID 652062); assay type: functional;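 further: luciferase signal from cell-cell fusion driven by HIV-1 clade B AD8 Env; potency is for inhibitors of fusion seen as a drop in luminescence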
[19] = molecular target: T3, DNA repair protein RAD52 homolog (Homo sapiens, UniProt P43351); assay type: functional, biochemical
T3 sequence (P43351 whole entry): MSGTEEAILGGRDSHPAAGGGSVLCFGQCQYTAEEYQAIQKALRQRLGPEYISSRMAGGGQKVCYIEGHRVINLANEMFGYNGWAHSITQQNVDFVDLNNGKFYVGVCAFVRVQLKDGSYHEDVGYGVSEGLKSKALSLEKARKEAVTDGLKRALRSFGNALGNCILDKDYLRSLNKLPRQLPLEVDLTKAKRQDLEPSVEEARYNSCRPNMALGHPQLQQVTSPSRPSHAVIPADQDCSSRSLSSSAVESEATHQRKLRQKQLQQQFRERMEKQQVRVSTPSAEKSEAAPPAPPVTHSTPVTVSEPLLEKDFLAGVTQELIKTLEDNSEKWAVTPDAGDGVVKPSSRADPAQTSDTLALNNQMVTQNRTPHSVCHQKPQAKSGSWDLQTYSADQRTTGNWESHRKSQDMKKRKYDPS

[20] = molecular target: Eukaryotic translation initiation factor 4E (Mus musculus, UniProt P63073); test: eIF4E–eIF4G protein interaction inhibitors, dose response, biochemical, TR-FRET (AID 855); assay type: functional;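 further: potency for disrupting eIF4E binding to eIF4GI seen as loss of FRET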
[21] = non-specific cell cytotoxicity, dose response, cytotoxicity control for PAX8 inhibitor project, plate reader, dry powder samples (AID 743021); assay type: functional, cell-based
[22] = molecular target: T4, Heat shock factor protein 1 (Mus musculus, UniProt P38532); test: inhibition of MG132-induced HSE-luciferase signal, confirmation, cell-based, NIH3T3, luminescence, dose retest (AID 2382); assay type: functional;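 further: NIH3T3 fibroblasts with HSF1-driven luciferase reporter stressed by proteasome inhibitor MG132; luminescence from HSF1-driven luciferase expression after 8 hours of MG132 stress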
T4 sequence (P38532 whole entry): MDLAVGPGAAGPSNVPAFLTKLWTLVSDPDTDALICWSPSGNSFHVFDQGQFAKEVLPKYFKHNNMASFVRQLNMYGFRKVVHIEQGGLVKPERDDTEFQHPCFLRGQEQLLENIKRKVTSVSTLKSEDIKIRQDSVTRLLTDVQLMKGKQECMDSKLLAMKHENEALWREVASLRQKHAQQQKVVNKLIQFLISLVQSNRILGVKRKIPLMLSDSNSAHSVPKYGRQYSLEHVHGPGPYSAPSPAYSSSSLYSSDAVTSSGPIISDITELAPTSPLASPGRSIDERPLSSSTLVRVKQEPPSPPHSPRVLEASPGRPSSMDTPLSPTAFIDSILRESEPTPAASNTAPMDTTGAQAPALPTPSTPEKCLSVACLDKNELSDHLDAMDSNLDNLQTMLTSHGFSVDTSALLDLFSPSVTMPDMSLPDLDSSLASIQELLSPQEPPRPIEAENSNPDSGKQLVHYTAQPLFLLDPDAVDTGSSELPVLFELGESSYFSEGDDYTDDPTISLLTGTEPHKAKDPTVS

[23] = molecular target: Induced myeloid leukemia cell differentiation protein Mcl-1 (Homo sapiens, UniProt Q07820); assay type: functional
Induced myeloid leukemia cell differentiation protein Mcl-1, sequence (Q07820 whole entry): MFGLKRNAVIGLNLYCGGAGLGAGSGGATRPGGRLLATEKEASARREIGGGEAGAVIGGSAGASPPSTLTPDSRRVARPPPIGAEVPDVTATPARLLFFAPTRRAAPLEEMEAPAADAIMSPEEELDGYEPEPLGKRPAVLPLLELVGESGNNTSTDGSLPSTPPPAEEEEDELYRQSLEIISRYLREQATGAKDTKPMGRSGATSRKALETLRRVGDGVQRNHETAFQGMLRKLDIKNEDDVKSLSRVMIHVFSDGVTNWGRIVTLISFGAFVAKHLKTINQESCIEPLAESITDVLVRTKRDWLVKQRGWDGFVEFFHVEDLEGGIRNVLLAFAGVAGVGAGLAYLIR

Eukaryotic translation initiation factor 4E, sequence (P63073 whole entry): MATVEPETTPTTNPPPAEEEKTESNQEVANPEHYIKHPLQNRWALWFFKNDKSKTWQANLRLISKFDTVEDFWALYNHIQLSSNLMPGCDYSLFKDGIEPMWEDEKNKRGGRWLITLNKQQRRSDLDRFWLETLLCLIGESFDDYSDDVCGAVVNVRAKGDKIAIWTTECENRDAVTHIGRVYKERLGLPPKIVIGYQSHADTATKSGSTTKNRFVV
Large T antigen, sequence (P03070 whole entry): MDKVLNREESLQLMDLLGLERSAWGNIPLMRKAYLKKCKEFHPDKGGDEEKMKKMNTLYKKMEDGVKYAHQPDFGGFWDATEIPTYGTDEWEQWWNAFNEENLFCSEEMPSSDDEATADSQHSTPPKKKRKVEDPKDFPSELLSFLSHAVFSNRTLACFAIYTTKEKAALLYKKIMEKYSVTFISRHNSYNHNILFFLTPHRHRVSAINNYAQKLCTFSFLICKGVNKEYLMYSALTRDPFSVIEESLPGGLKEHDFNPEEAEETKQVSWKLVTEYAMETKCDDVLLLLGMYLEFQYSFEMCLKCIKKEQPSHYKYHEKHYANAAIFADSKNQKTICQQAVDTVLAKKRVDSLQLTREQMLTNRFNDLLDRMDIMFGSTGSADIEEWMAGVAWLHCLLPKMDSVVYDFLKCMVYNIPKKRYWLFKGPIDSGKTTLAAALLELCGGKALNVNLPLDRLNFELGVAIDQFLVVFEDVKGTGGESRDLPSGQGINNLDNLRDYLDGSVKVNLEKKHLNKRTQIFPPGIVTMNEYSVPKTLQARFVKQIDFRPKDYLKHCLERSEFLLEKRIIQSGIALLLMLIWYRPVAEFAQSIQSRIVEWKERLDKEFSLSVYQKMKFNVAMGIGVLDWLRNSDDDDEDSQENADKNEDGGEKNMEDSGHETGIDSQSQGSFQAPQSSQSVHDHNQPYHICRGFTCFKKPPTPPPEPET

SMILES: O=C(O)C1CC=CCC1C(=O)Nc1ccc(S(=O)(=O)N2CCCc3ccccc32)cc1 (configuration not stated)
- CC50 [1]: 15.7 µM (active)
- IC50 (Vero): 16.4 µM (active)
- IC50 (cells [2]): 2.91 µM (active)

SMILES: Cc1ccc(C)c(NC(=O)C2CC(Cl)=CCC2C(=O)O)c1 (configuration not stated)
- IC50 (Leucine aminopeptidase): 18.6 µM (active)

SMILES: COc1ccc(C2(O)CCN(CC(=O)Nc3nc(-c4ccccc4)cs3)CC2)cc1
- CC50 [3]: > 40 µM (active)
- IC50 (cells [4]): 16.7 µM (active)

SMILES: O=C(O)/C=C/C(=O)Nc1ccc(Oc2ccc(NC(=O)/C=C/C(=O)O)cc2)cc1
- IC50 (Leucine aminopeptidase): 14.8 µM (active)
- IC50 (Large T antigen): > 100 µM (active)

SMILES: Cc1ccc(SCCOCCN2CC(C)OC(C)C2)cc1 (configuration not stated)
- EC50 [5]: < 0.1 µM (active)
- EC50 [6]: > 60 µM (not active)
- EC50 (cells [7]): 0.007 µM (active)

SMILES: COc1ccc(-[n+]2c(-c3ccc(Br)cc3)cn3c2CCc2ccccc2-3)cc1
- EC50 [8]: > 160 µM (inactive)
- EC50 [9]: > 120 µM (not active)
- EC50 [10]: > 120 µM (not active)
- EC50 (H4): > 120 µM (not active)
- EC50 [11]: 1.62 µM (active)
- EC50 [5]: 0.424 µM (active)
- EC50 [6]: > 30 µM (not active)
- IC50 [12]: > 80 µM (inactive)
- AC50 (INS1): 2.15 µM (active)

SMILES: COc1cc(CN2CCCC(CCC(=O)NCc3ccc(C)o3)C2)cc2c1OCO2 (configuration not stated)
- EC50 [5]: < 0.1 µM (active)
- EC50 [6]: > 60 µM (not active)
- EC50 (cells [7]): 0.015 µM (active)

SMILES: CNc1cccnc1C=NNC(N)=S
- AC50 (HEK293): 2.43 µM (active)
- AC50 [13]: 6.42 µM (active)
- AC50 [14]: 0.457 µM (active)
- AC50 [15]: 5.69 µM (active)
- AC50 [16]: 0.805 µM (active)
- AC50 [17]: 9.89 µM (active)
- AC50 [18]: 1.94 µM (active)

SMILES: COC(=O)[C@]12C[C@H](CC(=O)NCc3cccs3)C(=O)N(CCC3=CCCCC3)C1=C[C@H](C(C)(C)C)O[C@@H]2C
- AC50 [14]: 1.18 µM (active)
- AC50 [15]: 51.6 µM (active)
- AC50 [16]: 1.91 µM (active)
- AC50 [17]: 1.72 µM (active)
- AC50 [18]: 5.01 µM (active)

SMILES: C[C@]12CC[C@H](O)CC1=CCC1C2CC[C@@]2(C)C1CC[C@@H]2NC(=O)[C@@H](N)Cc1c[nH]cn1 (some centres not stated)
- AC50 [19]: 0.952 µM (active)

SMILES: CC(NC(=O)CSc1nnc(CC(=O)Nc2ccc(Cl)c(Cl)c2)n1C)c1ccccc1 (configuration not stated)
- IC50 [20]: > 64 µM (inactive)

SMILES: COC(=O)CSc1nnc(-c2sc3ccccc3c2Cl)o1
- IC50 [12]: > 80 µM (inactive)

SMILES: Cc1nc(Nc2c(Cl)cccc2Cl)sc1C(=O)Nc1ccccc1
- IC50 [12]: > 80 µM (inactive)

SMILES: CC(=O)c1ccc(Nc2nc(C(N)Cc3ccc(N)cc3)cs2)cc1 (configuration not stated)
- AC50 [19]: 30.4 µM (active)

SMILES: Cc1ncc(CN2CCCC(CCC(=O)NCc3ccc(F)c(F)c3)C2)s1 (configuration not stated)
- EC50 [5]: < 0.1 µM (active)
- EC50 [6]: > 60 µM (inconclusive)
- EC50 (cells [7]): 0.14 µM (active)

SMILES: CCCCN1C(=O)C(O)(c2ccccc2)c2cc(Br)ccc21 (configuration not stated)
- AC50 [14]: 4.89 µM (active)
- AC50 [15]: 48.2 µM (active)
- AC50 [16]: 4.73 µM (active)
- AC50 [17]: 6.01 µM (active)
- AC50 [18]: 7.82 µM (active)

SMILES: CCOc1ccc2ccccc2c1/C=N\NC(=O)OC
- AC50 [21]: 48.5 µM (active)

SMILES: COc1ccc(S(=O)(=O)N2CCN(CCO)CC2)cc1-c1nnc2c3ccccc3c(C)nn12
- EC50 [22]: > 195 µM (not active)
- IC50 (cells [2]): 4.08 µM (active)

SMILES: CC(=O)Nc1ccc(C(=O)Nc2cccc(-c3cnc4ccccc4n3)c2)cc1
- IC50 [23]: 25.5 µM (not active)
- IC50 [20]: 50 µM (inactive)

SMILES: C=CCc1cc(Cl)ccc1OCCCn1ccnc1
- EC50 [5]: 2.12 µM (active)
- EC50 [6]: > 60 µM (not active)
- CC50 [3]: > 40 µM (active)
- IC50 (cells [4]): 16.7 µM (active)

SMILES: COc1ccc(OCc2cccc(C(=O)NN)c2)cc1
- IC50 [12]: > 80 µM (inactive)
- AC50 (HEK293): 3.57 µM (active)

SMILES: O=C(O)CSc1ccccn1
- IC50 [20]: > 64 µM (inactive)

SMILES: COc1ccc(CCOC(=O)c2ccc(NC(=O)CC#N)cc2)cc1
- CC50 [1]: > 50 µM (active)
- IC50 (cells [2]): 9.43 µM (active)
